Assays:
[1] = tested on: thyrotropin releasing hormone receptor/orexin receptor hetero-dimer/-oligomer (TRHR with OxR2); experiment: eBRET/BRET detection of TRHR-OxR2 association: TRHR/Rluc + tagged beta-arrestin + OxR2 as IG3 in HEK293 cells; type: cell-based; settings: OxR2, FIG. 6
Method: (§1) Briefly, referring to FIGS. 1 to 3, the IGs are provided in the form of the two receptors (TRHR and OxR). One of the two is attached to an RC (IG1-RC1, IG3). A second IG (IG2-RC2) is derived from a molecule that interacts with the receptors upon ligand binding (e.g. beta-arrestin, or a mutant thereof).
Cells were seeded in 6-well plates at a density of approximately 630,000 cells/well (HEK293FT) or approximately 150,000 cells/well (COS-7) and maintained at 37° C., 5% CO2 in Complete Media (DMEM containing 0.3 mg/ml glutamine, 100 IU/ml penicillin and 100 μg/ml streptomycin (Gibco)) supplemented with 10% fetal calf serum (FCS; Gibco). Transient transfections were carried out 24 h after seeding using GeneJuice (Novagen) or Metafectene (Biontex) according to manufacturer instructions. 24 h post-transfection, cells were washed with PBS, detached using 0.05% trypsin/0.53 mM EDTA, resuspended in HEPES-buffered phenol red free Complete Media containing 5% FCS and added to a poly-L-lysine-coated white microplate (Nunc). 48 h post-transfection, eBRET assays were carried out following pre-incubation of cells with EnduRen™ (Promega) at a final concentration of 30-40 μM, at 37° C., 5% CO2 for 2 h. For original BRET studies, the HEPES-buffered phenol red free Complete Media was replaced with PBS and coelenterazine h (Molecular Probes) added to a final concentration of 5 μM immediately prior to commencing the assay. […] Filtered light emissions were sequentially measured for 3-5 s in each of the ‘donor wavelength window’ (400-475 nm) and ‘acceptor wavelength window’ (>500 nm for EGFP or 520-540 nm for EYFP, Topaz (TYFP) or Venus). The BRET signal observed between interacting proteins is normalized by subtracting the background BRET ratio. […] In the following examples, the first calculation will be used, unless the signal is described as the ‘ligand-induced BRET ratio’. […] In this case, data are shown as ‘fluorescence/luminescence’ being the ratio of light emission through the ‘acceptor wavelength window’ over the 400-475 nm emission for a particular cell sample. Unless otherwise stated, BRET signals were measured in 96-well microplates. […]
Cells not pretreated with antagonist were pretreated with PBS instead for the same amount of time. […]

[2] = tested on: thyrotropin releasing hormone receptor/orexin receptor hetero-dimer/-oligomer (TRHR with OxR1); experiment: eBRET: TRHR/Rluc + barr2/Venus + OxR1 as IG3 in HEK293 cells; type: cell-based; settings: OxR1, FIG. 6
Method: as §1
Cells were seeded in 6-well plates at a density of approximately 630,000 cells/well (HEK293FT) or approximately 150,000 cells/well (COS-7) and maintained at 37° C., 5% CO2 in Complete Media (DMEM containing 0.3 mg/ml glutamine, 100 IU/ml penicillin and 100 μg/ml streptomycin (Gibco)) supplemented with 10% fetal calf serum (FCS; Gibco). Transient transfections were carried out 24 h after seeding using GeneJuice (Novagen) or Metafectene (Biontex) according to manufacturer instructions. 24 h post-transfection, cells were washed with PBS, detached using 0.05% trypsin/0.53 mM EDTA, resuspended in HEPES-buffered phenol red free Complete Media containing 5% FCS and added to a poly-L-lysine-coated white microplate (Nunc). 48 h post-transfection, eBRET assays were carried out following pre-incubation of cells with EnduRen™ (Promega) at a final concentration of 30-40 μM, at 37° C., 5% CO2 for 2 h. For original BRET studies, the HEPES-buffered phenol red free Complete Media was replaced with PBS and coelenterazine h (Molecular Probes) added to a final concentration of 5 μM immediately prior to commencing the assay. […] Filtered light emissions were sequentially measured for 3-5 s in each of the ‘donor wavelength window’ (400-475 nm) and ‘acceptor wavelength window’ (>500 nm for EGFP or 520-540 nm for EYFP, Topaz (TYFP) or Venus). The BRET signal observed between interacting proteins is normalized by subtracting the background BRET ratio. […] In this case, data are shown as ‘fluorescence/luminescence’ being the ratio of light emission through the ‘acceptor wavelength window’ over the 400-475 nm emission for a particular cell sample. Unless otherwise stated, BRET signals were measured in 96-well microplates. […]

[3] = tested on: animals studied (narcolepsy); settings: cited from earlier work
[4] = 10^−6M SB-334867-A approx. 40 minutes before 10^−6M OxA
[5] = 10^−6M SB-334867-A approx. 40 minutes before 10^−6M TRH and OxA
[6] = dose- and time-dependent manner

SMILES | effect of antagonist pretreatment on OxA-induced eBRET signal [1, 4] | effect of antagonist pretreatment on TRH + OxA-induced eBRET signal [1, 5] | effect of antagonist pretreatment on OxA-induced eBRET signal [2, 4] | effect of antagonist pretreatment on TRH + OxA-induced eBRET signal [2, 5] | rapid eye movement (REM) sleep [3, 6] | slow wave sleep (SWS) [3, 6] | cataplexy ([3]; in most of the animals studied)
Cc1nc2ccc(NC(=O)Nc3ccnc4cccnc34)cc2o1.Cl [SB-334867-A, 1-(2-methylbenzoxazol-6-yl)-3-[1,5]naphthyridin-4-yl urea hydrochloride] | not affected | did not differ | reduced | reduced |  |  | 
CN1C(=O)C[C@@H](C(=O)N[C@@H](Cc2c[nH]cn2)C(=O)N2CCC[C@H]2C(N)=O)NC1=O.O.O.O.O [TA-0910] |  |  |  |  | significantly reduced | significantly reduced | completely suppressed
